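Five concentrations, 48 hours, 96-well plates. The concentration for 50% growth inhibition is given as GI50.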 Calls of active or inactive are those of the source. Rule as the data show it: active = GI50 up to about 1.1 µM and inactive = higher.
Key:
Experiment in all cases: NCI anticancer screen, dose series, 48 h
SW-620 = system: SW-620
XF498 = system: XF498
SK-MEL-5 = system: SK-MEL-5
HOP-62 = system: HOP-62
DMS-114 = system: DMS-114
HT-29 = system: HT-29
CCRF-CEM = system: CCRF-CEM
HL-60 = system: HL-60
NCI-H522 = system: NCI-H522
KM12 = system: KM12
LXFL 529 = system: LXFL 529
DMS-273 = system: DMS-273
OVCAR-3 = system: OVCAR-3
U-251 = system: U-251
A498 = system: A498
CAKI-1 = system: CAKI-1
DLD-1 = system: DLD-1
UO-31 = system: UO-31
M14 = system: M14
786-0 = system: 786-0
SF-539 = system: SF-539
HCT-15 = system: HCT-15
IGROV-1 = system: IGROV-1
SK-MEL-28 = system: SK-MEL-28
Malme-3M = system: Malme-3M
NCI-H460 = system: NCI-H460
RXF 393 = system: RXF 393
SN12C = system: SN12C
HOP-92 = system: HOP-92
K562 = system: K562
SNB-19 = system: SNB-19
A549 = system: A549
LOX IMVI = system: LOX IMVI
SF-268 = system: SF-268
OVCAR-4 = system: OVCAR-4
SK-OV-3 = system: SK-OV-3
COLO 205 = system: COLO 205
SNB-78 = system: SNB-78
NCI-H23 = system: NCI-H23
M19-MEL = system: M19-MEL
RPMI-8226 = system: RPMI-8226
HCC 2998 = system: HCC 2998
UACC-257 = system: UACC-257
SF-295 = system: SF-295
MOLT-4 = system: MOLT-4
SK-MEL-2 = system: SK-MEL-2
UACC-62 = system: UACC-62
SNB-75 = system: SNB-75
HCT-116 = system: HCT-116
TK-10 = system: TK-10
NCI-H226 = system: NCI-H226
OVCAR-8 = system: OVCAR-8
SR = system: SR
KM-20L2 = system: KM-20L2
ACHN = system: ACHN
EKVX = system: EKVX

SMILES: C[C@@H](CO)OCOCc1ccccc1
- GI50 (SW-620): > 100 µM (inactive)
- GI50 (XF498): > 100 µM (inactive)
- GI50 (SK-MEL-5): > 100 µM (inactive)
- GI50 (HOP-62): > 100 µM (inactive)
- GI50 (DMS-114): > 100 µM (inactive)
- GI50 (HT-29): > 100 µM (inactive)
- GI50 (CCRF-CEM): > 100 µM (inactive)
- GI50 (HL-60): > 100 µM (inactive)
- GI50 (NCI-H522): > 100 µM (inactive)
- GI50 (KM12): > 100 µM (inactive)
- GI50 (LXFL 529): > 100 µM (inactive)
- GI50 (DMS-273): > 100 µM (inactive)
- GI50 (OVCAR-3): > 100 µM (inactive)
- GI50 (U-251): > 100 µM (inactive)
- GI50 (A498): > 100 µM (inactive)
- GI50 (CAKI-1): > 100 µM (inactive)
- GI50 (DLD-1): > 100 µM (inactive)
- GI50 (UO-31): > 100 µM (inactive)
- GI50 (M14): > 100 µM (inactive)
- GI50 (786-0): > 100 µM (inactive)
- GI50 (SF-539): > 100 µM (inactive)
- GI50 (HCT-15): > 100 µM
- GI50 (IGROV-1): > 100 µM (inactive)
- GI50 (SK-MEL-28): > 100 µM (inactive)
- GI50 (Malme-3M): > 100 µM (inactive)
- GI50 (NCI-H460): > 100 µM (inactive)
- GI50 (RXF 393): > 100 µM (inactive)
- GI50 (SN12C): > 100 µM (inactive)
- GI50 (HOP-92): > 100 µM (inactive)
- GI50 (K562): > 100 µM (inactive)
- GI50 (SNB-19): > 100 µM (inactive)
- GI50 (A549): > 100 µM (inactive)
- GI50 (LOX IMVI): > 100 µM (inactive)
- GI50 (SF-268): > 100 µM (inactive)
- GI50 (OVCAR-4): > 100 µM (inactive)
- GI50 (SK-OV-3): > 100 µM (inactive)
- GI50 (COLO 205): > 100 µM (inactive)
- GI50 (SNB-78): > 100 µM (inactive)
- GI50 (NCI-H23): > 100 µM (inactive)
- GI50 (M19-MEL): > 100 µM (inactive)
- GI50 (RPMI-8226): > 100 µM (inactive)
- GI50 (HCC 2998): > 100 µM (inactive)
- GI50 (UACC-257): > 100 µM (inactive)
- GI50 (SF-295): > 100 µM (inactive)
- GI50 (MOLT-4): > 100 µM (inactive)
- GI50 (SK-MEL-2): > 100 µM (inactive)
- GI50 (UACC-62): > 100 µM (inactive)
- GI50 (SNB-75): > 100 µM (inactive)
- GI50 (HCT-116): > 100 µM (inactive)

SMILES: CCOC(=O)C(C)(C)Oc1ccc2c(-c3ccccc3)cc(=O)oc2c1
- GI50 (TK-10): 56.8 µM (inactive)
- GI50 (NCI-H226): 33.3 µM (inactive)
- GI50 (SW-620): 36.7 µM (inactive)
- GI50 (OVCAR-8): 37.1 µM (inactive)
- GI50 (XF498): 16.4 µM (inactive)
- GI50 (SK-MEL-5): 13.9 µM (inactive)
- GI50 (HOP-62): 23.1 µM (inactive)
- GI50 (DMS-114): 21.9 µM (inactive)
- GI50 (HT-29): > 10 µM (inactive)
- GI50 (SR): 24.9 µM (inactive)
- GI50 (CCRF-CEM): 21.7 µM (inactive)
- GI50 (KM-20L2): 30.6 µM (inactive)
- GI50 (HL-60): 20.1 µM (inactive)
- GI50 (LXFL 529): 25.3 µM (inactive)
- GI50 (ACHN): 40.2 µM (inactive)
- GI50 (DMS-273): 29 µM (inactive)
- GI50 (OVCAR-3): 33.9 µM (inactive)
- GI50 (U-251): 36.3 µM (inactive)
- GI50 (A498): 30.2 µM (inactive)
- GI50 (DLD-1): 25.3 µM (inactive)
- GI50 (UO-31): 23 µM (inactive)
- GI50 (M14): 36.6 µM (inactive)
- GI50 (786-0): 33.7 µM (inactive)
- GI50 (SF-539): 31.8 µM (inactive)
- GI50 (HCT-15): 31.8 µM
- GI50 (IGROV-1): 25.1 µM (inactive)
- GI50 (SK-MEL-28): 35.6 µM (inactive)
- GI50 (EKVX): 43 µM (inactive)
- GI50 (Malme-3M): 28.6 µM (inactive)
- GI50 (NCI-H460): > 100 µM (inactive)
- GI50 (SN12C): 37 µM (inactive)
- GI50 (K562): 27.6 µM (inactive)
- GI50 (SNB-19): 42.1 µM (inactive)
- GI50 (A549): 38.9 µM (inactive)
- GI50 (LOX IMVI): 20.2 µM (inactive)
- GI50 (SF-268): 45.8 µM (inactive)
- GI50 (OVCAR-4): 35.4 µM (inactive)
- GI50 (COLO 205): 21.6 µM (inactive)
- GI50 (NCI-H23): 29 µM (inactive)
- GI50 (M19-MEL): 32.2 µM (inactive)
- GI50 (RPMI-8226): 18.1 µM (inactive)
- GI50 (HCC 2998): 98.4 µM (inactive)
- GI50 (UACC-257): 28.7 µM (inactive)
- GI50 (SF-295): 40.9 µM (inactive)
- GI50 (MOLT-4): 20.2 µM (inactive)
- GI50 (SK-MEL-2): 22.6 µM (inactive)
- GI50 (UACC-62): 18.3 µM (inactive)
- GI50 (SNB-75): 12.9 µM (inactive)
- GI50 (HCT-116): 35.6 µM (inactive)

Reference: ChEMBL document CHEMBL1201862, “PubChem BioAssay data set” (2004)
